Assay results as given in patent US20110065734A1, “NOVEL BIFUNCTIONAL COMPOUNDS WHICH INHIBIT PROTEIN KINASES AND HISTONE DEACETYLASES” (4SC AG, priority 2007, published 2011).
Structures can show the parent of a compound that is named as a salt.

Legend:
[1] = tested on: SKOV3 ovarian carcinoma cell line; experiment: Cellular cytotoxicity assay (Alamar Blue), SKOV3; assay type: cell-based; conditions: Homo sapiens, SK-OV-3; 72 h; only a range over the listed compounds is given; read-out: Cytotoxicity towards SKOV3 cell line IC50
Experimental: (§1) The anti-proliferative activity of the chimeric HDAC and protein kinase inhibitory chimeric compounds of the present invention was evaluated using HeLa cervical carcinoma, A549 NSCLC, SKOV3 ovarian carcinoma, Cal27 head and neck cancer, K562 chronic myeloid leukemia (CML) and EOL1 acute hypereosinophilic myeloid leukemia, cell lines. For quantification of cellular proliferation/living cells the Alamar Blue (Resazurin) cell viability assay was applied (O'Brien et al. Eur Biochem. 267, 5421-5426, 2000). In this assay Resazurin is reduced to the fluorescent resorufin by cellular dehydrogenase activity, correlating with viable, proliferating cells. The examples were dissolved as 20 mM solutions in dimethylsulfoxide (DMSO) and subsequently diluted in semi-logarithmic steps. Cell lines were seeded at respective density into 96 well flat bottom plates in a volume of 200 μl per well. 24 h after seeding 1 μl each of the compound dilutions were added into each well of the 96 well plate. Each compound dilution was tested as quadruplicates. Wells containing untreated control cells were filled with […] DMEM medium containing 0.5% v:v DMSO. The cells were then incubated with the substances for 72 h at 37° C. in a humidified atmosphere containing 5% carbon dioxide. To determine the viability of the cells, 20 μl of an Resazurin solution (Sigma; 90 mg/l) were added. After 4 h incubation at 37° C. the fluorescence was measured at an extinction of 544 nm and an emission of 590 nm. For the calculation of the cell viability the emission value from untreated cells was set as 100% viability and the emission rates of treated cells were set in relation to the values of untreated cells. Viabilities were expressed as % values. The corresponding IC50 values of the compounds for cytotoxic activity are determined from the concentration-effect curves by means of non-linear regression.

[2] = tested on: A549 NSCLC cell line; experiment: Cellular cytotoxicity assay (Alamar Blue), A549; assay type: cell-based; conditions: Homo sapiens, A549; 72 h; only a range over the listed compounds is given; read-out: Cytotoxicity towards A549 NSCLC cell line IC50
Experimental: as §1

[3] = tested on: HeLa cervical carcinoma cell line; experiment: Cellular cytotoxicity assay (Alamar Blue), HeLa; assay type: cell-based; conditions: Homo sapiens, 72 h, only a range over the listed compounds is given, read-out: Cytotoxicity towards HeLa cervical cell line IC50
Experimental: as §1

[4] = target: T1, recombinant HDAC1 isolated from HEK293 cells with heterologous HDAC1 expression (Homo sapiens, UniProt Q13547); experiment: Fluorimetric rHDAC1 activity assay; assay type: biochemical; conditions: only a range of IC50 over the compounds given; read-out: rHDAC1 inhibitory activity IC50
T1 construct: made in house

[5] = tested on: histone H3 hyperacetylation in HeLa cervical carcinoma cells; experiment: Cellular histone H3 hyperacetylation assay; assay type: cell-based; conditions: Homo sapiens, 24 h, only a range over the listed compounds is given, read-out: Induction of histone H3 hyperacetylation in HeLa cervical carcinoma cells EC50
Excerpt: To assess the cellular efficacy of a histone deacetylase inhibitor in vitro, an assay was set up in black clear-bottom 96-well plates and optimized for use on the Cellomics “ArrayScan II” platform for a quantitative calculation of histone acetylation. The protocol uses a polyclonal rabbit antibody, specifically binding to acetylated lysine 1-20 of human histone H3 on fixed cells with an Alexa Fluor 488 labeled goat anti rabbit-IgG used for counterstaining (Beckers et al. Int J. Cancer 121, 1138, 2007).
5×10^3 HeLa cervical carcinoma cells/well (ATCC. CCL-2) in 200 μl Dulbecco rs modified Eagle's medium (DMEM) containing 10% fetal calf serum are seeded at day 1 in Packard view plates and incubated for 24 h under standard cell culture conditions. On day 2, 1 μl test compound (200× final concentration) is added and incubation continued for further 24 h. On day 3, the culture medium is discarded and attached cells fixed for 15 min at room temperature by addition of 100 μl fixation buffer (3.7% v:v formaldehyde in phosphate buffered saline/PBS). After discarding the fixation buffer and one wash with blocking solution (1% BSA, 0.3% Tween 20 in PBS), cells are permeabilized at room temperature by addition of 100 μl/well permeabilization buffer (30.8 mM NaCl, 0.54 mM Na2HPO4, 0.31 mM KH2PO4, 0.1% v:v Triton X-100) for 15 min at room temperature. After discarding the permeabilization buffer and washing twice with 100 μl/well blocking solution at room temperature, the 1st antibody (anti-K^1-20 histone H3 antibody, Calbiochem No. 382158) in blocking solution (50 μl/well) is added. After incubation for 1 h at room temperature, the wells are washed twice at room temperature with 100 μl/well blocking solution before addition of the 2nd antibody (goat-anti-rabbit Alexa Fluor 488; MoBiTec No. A-11008) in blocking solution (50 μl/well). After further incubation for 1 h at room temperature, wells are washed twice with 100 μl/well blocking solution at room temperature. Finally, 100 μl/well PBS are added and image analysis performed on the Cellomics “ArrayScan II” platform. For EC50 determination, the percentage of positive cells showing nuclear fluorescence is determined and EC50 calculation done from concentration-effect curves by means of non-linear regression. For calibration, a positive (reference HDAC inhibitors like SAHA or NVP LBH-589) and a negative control were included.

T1 sequence (Q13547 whole entry): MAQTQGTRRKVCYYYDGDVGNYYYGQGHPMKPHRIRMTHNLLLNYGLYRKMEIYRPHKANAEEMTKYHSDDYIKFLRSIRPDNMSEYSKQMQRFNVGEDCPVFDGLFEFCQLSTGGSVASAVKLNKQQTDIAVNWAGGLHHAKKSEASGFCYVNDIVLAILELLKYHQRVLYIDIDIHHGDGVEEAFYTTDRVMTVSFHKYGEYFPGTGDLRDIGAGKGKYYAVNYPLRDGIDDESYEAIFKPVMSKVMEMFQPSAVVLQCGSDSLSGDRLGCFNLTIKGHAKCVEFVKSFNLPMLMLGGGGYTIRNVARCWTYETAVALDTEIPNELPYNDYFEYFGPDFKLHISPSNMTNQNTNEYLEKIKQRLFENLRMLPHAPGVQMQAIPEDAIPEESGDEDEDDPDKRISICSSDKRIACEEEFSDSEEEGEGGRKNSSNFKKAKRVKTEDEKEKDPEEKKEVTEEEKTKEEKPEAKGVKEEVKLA

Row | Compound | IC50 [2] [nM] | melting point | IC50 [4] [nM] | further results
1 | C#Cc1cccc(Nc2ncnc3ccc(NC(=O)c4ccc(C(=O)Nc5ccccc5N)cc4)cc23)c1 [[37], N-(2-Amino-phenyl)-N′-[4-(3-ethynyl-phenylamino)-quinazolin-6-yl]-terephthalamide] | ≥ 240 | 253 to 258 °C | – | IC50 [1]: ≥ 560 nM; IC50 [3]: ≥ 500 nM
2 | Nc1ccccc1NC(=O)/C=C/c1ccc(-c2ccc3ncnc(Nc4ccc(OCc5cccc(F)c5)c(Cl)c4)c3c2)o1 [[13], (E)-N-(2-aminophenyl)-3-(5-(4-(3-chloro-4-(3-fluorobenzyloxy)phenylamino)quinazolin-6-yl)furan-2-yl)acrylamide] | ≥ 1100 | – | ≥ 35.3 | –
3 | C#Cc1cccc(Nc2ncnc3cc(NC(=O)c4cccc(/C=C/C(=O)Nc5ccccc5N)c4)ccc23)c1 [[42], (E)-3-(3-(2-aminophenylamino)-3-oxoprop-1-enyl)-N-(4-(3-ethynylphenylamino)quinazolin-7-yl)benzamide] | – | 190 to 194.2 °C | ≥ 6.5 | –
4 | C#Cc1cccc(Nc2ncnc3cc(NC(=O)c4ccc(C(=O)Nc5ccccc5N)cc4)ccc23)c1 [[41], N-(2-Amino-phenyl)-N′-[4-(3-ethynyl-phenylamino)-quinazolin-7-yl]-terephthalamide] | – | – | – | IC50 [1]: ≥ 560 nM
5 | C#Cc1cccc(Nc2ncnc3ccc(NC(=O)c4ccc(C(=O)Nc5ccccc5N)s4)cc23)c1 [[38], Thiophene-2,5-dicarboxylic acid 2-[(2-amino-phenyl)-amide]-5-{[4-(3-ethynyl-phenylamino)-quinazolin-6-yl]-amide}] | ≥ 240 | – | – | IC50 [1]: ≥ 560 nM; IC50 [3]: ≥ 500 nM
6 | Nc1ccccc1NC(=O)c1ccc(C(=O)Nc2cccc(Nc3nccc(-c4cccnc4)n3)c2)cc1 [[31], N-(2-Amino-phenyl)-N′-[3-(4-pyridin-3-yl-pyrimidin-2-ylamino)-phenyl]-terephthalamide] | ≥ 2950 | – | – | –
7 | O=C(/C=C/c1ccc(C(=O)Nc2cccc(Nc3nc(-c4cccnc4)cs3)c2)s1)NO [[34], (E)-5-(3-(hydroxyamino)-3-oxaprop-1-enyl)-N-(3-(4-(pyridin-3-yl)thiazol-2-ylamino)phenyl)thiophene-2-carboxamide] | ≥ 2950 | 205.6 °C | – | –
8 | Cc1ccc(NC(=O)c2ccc(C(=O)Nc3ccccc3N)s2)cc1Nc1nc(-c2cccnc2)cs1 [[27], N^2-(2-aminophenyl)-N^5-(4-methyl-3-(4-(pyridin-3-yl)thiazol-2-ylamino)phenyl)thiophene-2,5-dicarboxamide] | – | 242.4 °C | – | –
9 | C#Cc1cccc(Nc2ncnc3ccc(OCc4ccc(C(=O)Nc5ccccc5N)cc4)cc23)c1 [[44], N-(2-aminophenyl)-4-((4-(3-ethynylphenylamino)quinazolin-6-yloxy)methyl)benzamide] | – | – | ≥ 6.5 | –
10 | Nc1ccccc1NC(=O)/C=C/c1ccc(-c2ccc3ncnc(Nc4ccc(OCc5cccc(F)c5)c(Cl)c4)c3c2)cc1 [[10], (E)-N-(2-aminophenyl)-3-(4-(4-(3-chloro-4-(3-fluorobenzyloxy)phenylamino)quinazolin-6-yl)phenyl)acrylamide] | ≥ 1100 | – | ≥ 35.3 | –
11 | Cc1ccc(NC(=O)c2ccc(C(=O)Nc3ccccc3N)nc2)cc1Nc1nccc(-c2cccnc2)n1 [[23], N^2-(2-aminophenyl)-N^5-(4-methyl-3-(4-(pyridin-3-yl)pyrimidin-2-ylamino)phenyl)pyridine-2,5-dicarboxamide] | – | 150.5 to 152.5 °C | – | –
12 | O=C(NO)c1ccc(C(=O)Nc2cccc(Nc3nc(-c4cccnc4)cs3)c2)cc1 [[17], N^1-hydroxy-N^4-(3-(4-(pyridin-3-yl)thiazol-2-ylamino)phenyl)terephthalamide] | ≥ 2950 | 205.5 °C | – | –
13 | Cc1ccc(NC(=O)c2ccc(C(=O)Nc3ccccc3N)cc2)cc1Nc1nc(-c2cccnc2)cs1 [[21], N^1-(2-aminophenyl)-N^4-(4-methyl-3-(4-(pyridin-3-yl)thiazol-2-ylamino)phenyl)terephthalamide] | – | 147.1 °C | – | –
14 | Nc1ccccc1NC(=O)c1ccc(COc2ccc3ncnc(Nc4cccc(Br)c4)c3c2)cc1 [[43], N-(2-aminophenyl)-4-((4-(3-bromophenylamino)quinazolin-6-yloxy)-methyl)benzamide] | – | 215 to 218 °C | – | –
15 | Nc1ccccc1NC(=O)c1ccc(C(=O)Nc2cccc(Nc3nc(-c4cccnc4)cs3)c2)cc1 (hydrate or solvate) [[18], N^1-(2-aminophenyl)-N^4-(3-(4-(pyridin-3-yl)thiazol-2-ylamino)phenyl)terephthalamide hydrate] | – | 224.8 to 224.9 °C | – | –
16 | Nc1ccccc1NC(=O)CCc1ccc(-c2ccc3ncnc(Nc4ccc(OCc5cccc(F)c5)c(Cl)c4)c3c2)cc1 [[12], N-(2-aminophenyl)-3-(4-(4-(3-chloro-4-(3-fluorobenzyloxy)phenylamino)quinazolin-6-yl)phenyl)propanamide] | ≥ 1100 | – | ≥ 35.3 | –
17 | O=C(/C=C/c1ccc(C(=O)Nc2cccc(Nc3nc(-c4cccnc4)cs3)c2)cc1)NO [[22], (E)-4-(3-(hydroxyamino)-3-oxoprop-1-enyl)-N-(3-(4-(pyridin-3-yl)thiazol-2-ylamino)phenyl)benzamide] | – | 100.6 °C | 77 to 1400 | –
18 | Cc1ccc(NCc2ccc(/C=C/C(=O)NO)cc2)cc1Nc1nccc(-c2cccnc2)n1 [[16], (E)-N-Hydroxy-3-(4-{[4-methyl-3-(4-pyridin-3-yl-pyrimidin-2-ylamino)-phenylamino]methyl}-phenyl)-acrylamide] | ≥ 2950 | 201 to 205 °C | 77 to 1400 | EC50 [5]: 1700 to 10000 nM; IC50 [3]: ≥ 1150 nM
19 | Nc1ccccc1NC(=O)c1ccc(-c2ccc3ncnc(Nc4ccc(OCc5cccc(F)c5)c(Cl)c4)c3c2)o1 [[5], 5-{4-[3-Chloro-4-(3-fluorobenzyloxy)phenylamino]-quinazolin-6-yl}furan-2-carboxylic acid (2-amino-phenyl)amide] | ≥ 1100 | 250 °C (dec.) | – | EC50 [5]: ≥ 3650 nM; IC50 [1]: ≥ 1000 nM
20 | Nc1ccccc1NC(=O)c1ccc(C(=O)Nc2ccc(Cl)c(Nc3nccc(-c4cccnc4)n3)c2)cc1 [[32], N-(2-Amino-phenyl)-N′-[4-chloro-3-(4-pyridin-3-yl-pyrimidin-2-ylamino)-phenyl]-terephthalamide compound with hydrochloric acid] | ≥ 2950 | – | – | –
21 | Nc1ccccc1NC(=O)c1ccc(C(=O)Nc2cccc(Nc3nc(-c4cccnc4)cs3)c2)s1 (as salt: salt) [[28], N^2-(2-aminophenyl)-N^5-(3-(4-(pyridin-3-yl)thiazol-2-ylamino)phenyl)thiophene-2,5-dicarboxamide] | – | 222.3 °C | – | –
